Experimental data taken from patent US9399631B2, “Polyphenol proteasome inhibitors, synthesis, and methods of use” (UNIVERSITY OF SOUTH FLORIDA, priority 2003, dated 2016).

What was measured:
[1] = test system: NK cells (YT cell line); experiment: Western blot of proteasome target proteins in non-transformed NK cells (YT line); assay type: cell-based, human; conditions: treatment up to 12 hour
Protocol: (§1) Cell Culture, Cell Extract Preparation, and Western Blot Assay. Human leukemia Jurkat T and prostate cancer LNCaP cells were cultured in RPMI 1640 medium supplemented with 10% fetal calf serum, 100 units/ml of penicillin, and 100 μg/ml streptomycin. Human immortalized, non-transformed NK cells (YT cell line) (38) were cultured in RPMI 1640 supplemented with 1 mM MEM sodium pyruvate solution, 0.1 mM MEM non-essential amino acids solution, 10% fetal calf serum. 100 units/ml penicillin, and 100 μg/ml streptomycin. Normal (WI-38) and simian virus 40 (SV40)-transformed (VA-13) human fibroblasts were grown in Dulbecco's modified Eagle's medium supplemented with 10% fetal calf serum, 100 units/ml of penicillin and 100 μg/ml of streptomycin. All cells were maintained at 37° C. in a humidified incubator with an atmosphere of 5% CO2. A whole cell extract was prepared in accordance with An et al. (An, B. et al. Cell Death Differ, 1998, 5:1062-75). Briefly, cells were harvested, washed with PBS twice, and homogenized in a lysis buffer [50 mM Tris-HCl (pH 8.0), 5 mM EDTA, 150 mM NaCl, 0.5% NP-40, 0.5 mM phenylmethylsulfonyl fluoride, and 0.5 mM dithiothreitol] for 30 min at 4° C. Afterwards, lysates were centrifuged at 12,000×g for 15 min at 4° C., and the supernatants were collected as whole cell extracts. Equal amounts of protein extract (60 μg) were resolved by SDS-polyacrylamide gel electrophoresis and transferred to a nitrocellulose membrane using a Semi-Dry Transfer system (BIO-RAD, Hercules, Calif.). Jurkat T, LNCaP, or DU-145 cells were treated with various concentrations of synthetic or natural tea polyphenols for indicted hours. The enhanced chemiluminescence (ECL) Western blot analysis was then performed using specific antibodies to the proteins of interest (p^27kip, IκB-α, PARP, Bax or actin). The ratio of p27 or IκB-α to the corresponding actin was determined by scanning intensities of the protein bands. […]

[2] = test system: MCF-7 cells; experiment: Proteasome inhibition / p27 accumulation in MCF-7 cells; assay type: cell-based, human
[3] = test system: WI-38 cells; experiment: Western blot of p27 in normal WI-38 fibroblasts; assay type: cell-based, human; conditions: 25 μM, 36 hours
Protocol: as §1, with “Afterwards, lysates were centrifuged at 12,000×g for 15 min at 4° C., and the supernatants were collected as whole cell extracts. Equal amounts of protein extract (60 μg) were resolved by SDS-polyacrylamide gel electrophoresis and transferred to a nitrocellulose membrane using a Semi-Dry Transfer system (BIO-RAD, Hercules, Calif.). Jurkat T, LNCaP, or DU-145 cells were treated with various concentrations of synthetic or natural tea polyphenols for indicted hours. The enhanced chemiluminescence (ECL) Western blot analysis was then performed using specific antibodies to the proteins of interest (p^27kip, IκB-α, PARP, Bax or actin).” left out

[4] = target: purified 20S proteasome (UniProt Q9P992); experiment: Inhibition of chymotrypsin-like activity of purified 20S proteasome (source not stated); assay type: biochemical; design: other: 1 μM; other: 10 μM; conditions: 1 μM
Chain of purified 20S proteasome (Q9P992 whole entry): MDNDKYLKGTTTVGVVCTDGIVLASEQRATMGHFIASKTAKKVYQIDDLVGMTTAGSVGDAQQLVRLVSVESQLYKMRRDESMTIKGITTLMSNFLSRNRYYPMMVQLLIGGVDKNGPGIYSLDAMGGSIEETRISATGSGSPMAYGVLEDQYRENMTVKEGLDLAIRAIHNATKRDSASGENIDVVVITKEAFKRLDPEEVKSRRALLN
Protocol: Inhibition of purified 20S proteasome activity by natural or synthetic GTPs. Purified prokaryotic (0.5 μg) or eukaryotic (0.02 μg) 20S proteasome was incubated with 20 μM fluorogenic peptide substrate, Suc-Leu-Leu-Val-Tyr-AMC for 30 min at 37° C. in […] of assay buffer (50 mM Tris-HCl, pH 7.5), with or without a natural or synthetic tea polyphenol. After incubation, production of hydrolyzed 7-amido-4-methyl-coumarin (AMC) groups was measured using a multi-well plate VERSAFLUOR Fluorometer with an excitation filter of 380 nm and an emission filter of 460 nm (BIO-RAD), and a multi-well plate reader Wallac 1420 VICTORTM^2 with an excitation filter of 355 nm and an emission filter of 460 nm (EG&G WALLAC).

[5] = test system: LNCaP cells; experiment: Cell-free caspase-3 activity assay, LNCaP cells; assay type: cell-based, human; conditions: 10 μM, normalized to 0 hours
Protocol: To examine whether (+)-EGCG could induce apoptosis only in LNCaP, but not DU-145, cells, both cell lines were treated with 10 μM (+)-EGCG for 0, 24, 48 or 72 hours, followed by performance of cell-free caspase-3 activity assay. Cells were harvested at each sequential time-point and activity was determined by incubating whole cell extracts with caspase-3 substrate and measuring free AMCs (FIG. 20C). All the time-points were normalized to 0 hours. (+)-EGCG activated caspase-3 in LNCaP cells in a time-dependent manner: by 2.5-, 3.5- and 6-fold at 24, 48 and 72 hours, respectively (FIG. 20C). In contrast, little caspase-3 activity was detected in (+)-EGCG-treated in DU145 cells: only ˜2-fold induction at 72 hours (FIG. 20C). In the same experiment, (−)-EGCG at 10 μM was used as a control. […] Therefore, the abilities of (+)-EGCG to activate apoptotic program in these prostate cancer cell lines are correlated well to their abilities to accumulate Bax protein levels to a critical high threshold (compare FIGS. 20C and 20D vs. 20B). Values are means of triplicate independent experiments and error bars denote standard deviations.

[6] = test system: DU145 cells; experiment: Western blot of Bax and PARP in DU145 cells; assay type: cell-based, human; conditions: 10 μM, 24 hours
Protocol: Cell Culture, Cell Extract Preparation, and Western Blot Assay. Human leukemia Jurkat T and prostate cancer LNCaP cells were cultured in RPMI 1640 medium supplemented with 10% fetal calf serum, 100 units/ml of penicillin, and 100 μg/ml streptomycin. Human immortalized, non-transformed NK cells (YT cell line) (38) were cultured in RPMI 1640 supplemented with 1 mM MEM sodium pyruvate solution, 0.1 mM MEM non-essential amino acids solution, 10% fetal calf serum. 100 units/ml penicillin, and 100 μg/ml streptomycin. Normal (WI-38) and simian virus 40 (SV40)-transformed (VA-13) human fibroblasts were grown in Dulbecco's modified Eagle's medium supplemented with 10% fetal calf serum, 100 units/ml of penicillin and 100 μg/ml of streptomycin. All cells were maintained at 37° C. in a humidified incubator with an atmosphere of 5% CO2. A whole cell extract was prepared in accordance with An et al. (An, B. et al. Cell Death Differ, 1998, 5:1062-75). […] The ratio of p27 or IκB-α to the corresponding actin was determined by scanning intensities of the protein bands.
Exponentially growing LNCaP and DU-145 prostate cells were harvested and the levels of Bax protein was detected by Western blot analysis (FIG. 20A). […]

[7] = test system: 26S proteasome in a Jurkat cell lysate; experiment: Chymotrypsin-like activity of 26S proteasome in Jurkat cell lysate; assay type: biochemical, human; conditions: 10 μM
Protocol: To determine the specificity of the synthetic GTP analogs, their effects were tested on the chymotrypsin-like and trypsin-like activities of the 26S proteasome in a Jurkat cell lysate. […] (+)-GCG at the same concentration inhibited ˜50% of the chymotrypsin-like activity. The potencies of (+)-EGCG and (+)-GCG were similar to those of their natural partners, respectively (FIG. 17A). […] Furthermore, none of the synthetic or control natural compounds could inhibit more than 15% of activity of a purified calpain enzyme (FIG. 17C). […] Values are mean triplicates and error bars denote standard deviations.

Row | Compound | IκB-α expression [1] | inhibition of proteasome activity / accumulation of p27 [2] | p27 levels [3] | inhibition of proteasomal activity [4] [%] | caspase-3 activation ([5]; 24 hours) [fold] | caspase-3 activation ([5]; 48 hours) [fold] | caspase-3 activation ([5]; 72 hours) [fold] | Bax protein levels [6] | inhibition of chymotrypsin-like activity of 26S proteasome [7] [%] | p27 expression [1]
1 | O=C(N[C@@H]1Cc2c(O)cc(O)cc2O[C@@H]1c1cc(O)c(O)c(O)c1)c1cc(O)c(O)c(O)c1 [(−)-EGCG-amide, (−)-[2R,3R]-N-[5,7-Dihydroxy-2-(3,4,5-trihydroxyphenyl)-chroman-3-yl]-3,4,5-trihydroxybenzamide] | unchanged | able to inhibit the proteasome activity | slightly increased | – | – | – | – | – | – | –
2 | O=C(OC1Cc2c(O)cc(O)cc2OC1c1cc(O)c(O)c(O)c1)c1cc(O)c(O)c(O)c1 (single isomer, unassigned; (+)) [(+)-EGCG] | – | – | – | 86 | 2.5 | 3.5 | 6 | neither (+)-EGCG nor (−)-EGCG was able to increase the levels of Bax protein | 76 | –
3 | O=C(OC1Cc2c(O)cc(O)cc2OC1c1cc(O)c(O)c(O)c1)c1cc(O)c(O)c(O)c1 (single isomer, unassigned; (+)) [(+)-GCG] | – | – | – | 70 | – | – | – | – | ~50 | –
4 | O=C(O[C@@H]1Cc2c(O)cc(O)cc2O[C@@H]1c1cc(O)c(O)c(O)c1)c1cc(O)c(O)c(O)c1 [(−)-EGCG, (−)-epigallocatechin-3-gallate, reference compound] | unchanged | – | – | – | – | – | – | neither (+)-EGCG nor (−)-EGCG was able to increase the levels of Bax protein | – | no p27 expression was detected
